From article PMC2888720 (Journal of medicinal chemistry, 2009) come the findings set out here.

Structures are written as SMILES.

The subject of test [1] is wild-type nontransfected HL-60 cells. As to the kind of experiment: Ca2+ mobilization in wild-type nontransfected HL-60 cells. The following applies: control cells which do not express FPRs. A general note: Calcium assays in cells follow changes in intracellular calcium, usually with a dye or a luminescent sensor.
For test [2], the system named is human neutrophils. Kind of test: Chemotaxis assay in human neutrophils. The following applies: Neutrophil, read-out: EC50 Chemotaxis. The class given is cell-based.
In test [3] the test system is human neutrophils. Kind of test: Ca2+ mobilization in human neutrophils. The class given is cell-based. Conditions: Neutrophil, read-out: EC50 Ca2+ mobilization.

For `COc1cccc(Cc2cc(C)nn(CC(=O)Nc3ccc(Br)cc3)c2=O)c1` [14a, N-(4-Bromophenyl)-2-[5-(3-methoxybenzyl)-3-methyl-6-oxo-6H-pyridazin-1-yl]-acetamide], the “Ca2+ flux response in wild-type (nontransfected, undifferentiated) HL-60 cells” value in test [1] is on record as “no response was observed”.

Consider `COc1cccc(Cc2cc(C)nn(CC(=O)Nc3ccc4c(c3)OCO4)c2=O)c1` [14m, N-Benzo[1,3]dioxol-5-yl-2-[5-(3-methoxybenzyl)-3-methyl-6-oxo-6H-pyridazin-1-yl]-acetamide], for which the EC50 in the test with human neutrophils [2] came out at 1200 ± 600 nM.

As for `COc1cccc(Cc2cc(C)nn(CC(=O)Nc3ccc([N+](=O)[O-])cc3)c2=O)c1` [14p, 2-[5-(3-Methoxybenzyl)-3-methyl-6-oxo-6H-pyridazin-1-yl]-N-(4-nitrophenyl)-acetamide], the EC50 came to 1900 ± 600 nM with human neutrophils [2] and 21700 ± 4200 nM in the test with human neutrophils [3].

For orientation: EC50 means the midpoint of the concentration-response curve.
